This assay relates to L1210 leukemia ip in BDF1 mice, survival T/C. Nature of the assay: NCI In Vivo Anticancer Drug Screen. Data for tumor model L1210 Leukemia (intraperitoneal) in B6D2F1 (BDF1) mice. The settings on record: endpoint: mean survival time, higher = longer survival. In outline: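 Each compound was tested against a transplantable tumor grown in mice. The endpoint was survival, with treated animals benchmarked against vehicle controls as a simple ratio.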

The mark [1] stands for this setting: dose: 25.0 mg/kg/injection, schedule: Q01DX009 (ip), vehicle: Klucel (hydroxypropylcellulose) (HPC).
Setting [2] is: dose: 50.0 mg/kg/injection, schedule: Q01DX009 (ip), vehicle: Klucel (hydroxypropylcellulose) (HPC).
Setting [3] is: dose: 100.0 mg/kg/injection, schedule: Q01DX009 (ip), vehicle: Klucel (hydroxypropylcellulose) (HPC).
Where [4] appears, read: dose: 400.0 mg/kg/injection, schedule: Q01DX009 (ip), vehicle: Klucel (hydroxypropylcellulose) (HPC).
The mark [5] stands for this setting: dose: 12.5 mg/kg/injection, schedule: Q01DX009 (ip), vehicle: Klucel (hydroxypropylcellulose) (HPC).
The mark [6] stands for this setting: dose: 50.0 mg/kg/injection, schedule: Q01DX001 (ip), vehicle: carboxymethylcellulose (CMC).
Setting [7] is: dose: 100.0 mg/kg/injection, schedule: Q01DX001 (ip), vehicle: carboxymethylcellulose (CMC).
The mark [8] stands for this setting: dose: 100.0 mg/kg/injection, schedule: Q04DX003 (ip), vehicle: Klucel (hydroxypropylcellulose) (HPC).
The mark [9] stands for this setting: dose: 200.0 mg/kg/injection, schedule: Q01DX001 (ip), vehicle: carboxymethylcellulose (CMC).
[10] abbreviates: dose: 200.0 mg/kg/injection, schedule: Q04DX003 (ip), vehicle: Klucel (hydroxypropylcellulose) (HPC).
Where [11] appears, read: dose: 400.0 mg/kg/injection, schedule: Q01DX001 (ip), vehicle: carboxymethylcellulose (CMC).
The mark [12] stands for this setting: dose: 400.0 mg/kg/injection, schedule: Q04DX003 (ip), vehicle: Klucel (hydroxypropylcellulose) (HPC).
[13] abbreviates: dose: 100.0 mg/kg/injection, schedule: Q01DX001 (ip), vehicle: Klucel (hydroxypropylcellulose) (HPC).
[14] abbreviates: dose: 200.0 mg/kg/injection, schedule: Q01DX001 (ip), vehicle: Klucel (hydroxypropylcellulose) (HPC).
Setting [15] is: dose: 400.0 mg/kg/injection, schedule: Q01DX001 (ip), vehicle: Klucel (hydroxypropylcellulose) (HPC).
[16] abbreviates: dose: 200.0 mg/kg/injection, schedule: Q01DX009 (ip), vehicle: Klucel (hydroxypropylcellulose) (HPC).
Where [17] appears, read: dose: 100.0 mg/kg/injection, schedule: Q01DX009 (ip), vehicle: saline with Tween-80.
The mark [18] stands for this setting: dose: 200.0 mg/kg/injection, schedule: Q01DX009 (ip), vehicle: saline with Tween-80.

Consider 18 compounds from PubChem BioAssay AID248 (DTP/NCI, 2004).

Molecules are shown by their SMILES. Values joined by “and” are separate entries in the source; they are usually repeats but may differ in a detail not shown here. Equal values may be shown once. Toxic doses and inconclusive results are not listed.

`CCc1ccccc1NC(=O)SCCSC(=O)Nc1ccccc1CC`: the T/C runs as follows: under setting [1], 91 % of control; under setting [2], 102 % of control; under setting [3], 96 % of control and 87 % of control; under setting [4], 104 % of control.
Turning to `O=[N+]([O-])c1cc(S(=O)(=O)Oc2ccccc2)ccc1Cl`, the T/C was 105 % of control under setting [5]; 105 % of control under setting [1]; 116 % of control under setting [6]; 100 % of control under setting [2]; 100 % of control under setting [7]; 98 % of control under setting [8]. The T/C is 100 % of control under setting [9], 103 % of control under setting [10], 105 % of control under setting [11] and 89 % of control under setting [12].
For `O=C(Nc1ccc(N(CCCl)CCCl)cc1)c1ccc([N+](=O)[O-])cc1`, the T/C (dose: 50.0 mg/kg/injection, schedule: Q04DX002 (ip), vehicle: saline) is 104 % of control; the T/C (dose: 100.0 mg/kg/injection, schedule: Q04DX002 (ip), vehicle: saline) was 95 % of control; the T/C (dose: 200.0 mg/kg/injection, schedule: Q04DX002 (ip), vehicle: saline) is 117 % of control; the T/C (dose: 400.0 mg/kg/injection, schedule: Q04DX002 (ip), vehicle: saline) was 114 % of control.
Consider `CO[C@@H](C=O)O[C@@H](C=O)CO`, for which the T/C (dose: 35.0 mg/kg/injection, schedule: Q01DX009 (ip), vehicle: water) was 115 % of control; the T/C (dose: 35.0 mg/kg/injection, schedule: Q01DX Z (ip), vehicle: water) is 115 % of control; the T/C (dose: 70.0 mg/kg/injection, schedule: Q01DX009 (ip), vehicle: water) is 123 % of control; the T/C (dose: 70.0 mg/kg/injection, schedule: Q01DX Z (ip), vehicle: water) is 122 % of control; the T/C (dose: 280.0 mg/kg/injection, schedule: Q01DX009 (ip), vehicle: water) is 153 % of control; the T/C (dose: 280.0 mg/kg/injection, schedule: Q01DX Z (ip), vehicle: water) is 160 % of control.
`CCOCCOCCOCCCNCC(=O)N1CCN(C(=O)CNCCCOCCOCCOCC)CC1`: the T/C was 92 % of control under setting [6], 101 % of control under setting [7], 103 % of control under setting [9] and 92 % of control under setting [11].
Take `CS(=O)(=O)OC1CCCCC1Oc1ccc(Br)cc1` (stereo not given): the T/C runs as follows: under setting [13], 106 % of control; under setting [8], 101 % of control; under setting [14], 104 % of control; under setting [10], 113 % of control; under setting [15], 103 % of control; under setting [12], 98 % of control.
With `O=C(Nc1ccccn1)Nc1ccc([N+](=O)[O-])cc1[N+](=O)[O-]`, the T/C runs as follows: (dose: 100.0 mg/kg/injection, schedule: Q04DX002 (ip), vehicle: Klucel (hydroxypropylcellulose) (HPC)) 108 % of control; (dose: 200.0 mg/kg/injection, schedule: Q04DX002 (ip), vehicle: Klucel (hydroxypropylcellulose) (HPC)) 104 % of control; (dose: 400.0 mg/kg/injection, schedule: Q04DX002 (ip), vehicle: Klucel (hydroxypropylcellulose) (HPC)) 97 % of control.
Consider `O/N=C/c1ccc2c(c1)OCO2`, for which the T/C by setting is: (dose: 50.0 mg/kg/injection, schedule: Q01DX001 (ip), vehicle: saline) 96 % of control; (dose: 100.0 mg/kg/injection, schedule: Q01DX001 (ip), vehicle: saline) 96 % of control; (dose: 100.0 mg/kg/injection, schedule: Q04DX002 (ip), vehicle: gum acacia) 106 % of control; (dose: 200.0 mg/kg/injection, schedule: Q01DX001 (ip), vehicle: saline) 102 % of control; (dose: 200.0 mg/kg/injection, schedule: Q04DX002 (ip), vehicle: gum acacia) 110 % of control; (dose: 400.0 mg/kg/injection, schedule: Q01DX001 (ip), vehicle: saline) 96 % of control. For the same compound, the T/C (dose: 400.0 mg/kg/injection, schedule: Q04DX002 (ip), vehicle: gum acacia) is 92 % of control.
In the case of `O=Nc1ccc(O)c2ccccc12`, the T/C is, setting by setting: under setting [2], 100 % of control; under setting [3], 100 % of control; under setting [16], 95 % of control.
For the compound `CC(=N\N=C(N)N)/C(C)=N/N=C(N)N`, the T/C (dose: 75.0 mg/kg/injection, schedule: Q01DX001 (ip), vehicle: saline) was 101 % of control and the T/C (dose: 150.0 mg/kg/injection, schedule: Q01DX001 (ip), vehicle: saline) was 98 % of control.
For `CC1(C)C(=O)C(=O)C2CCCCC21` (stereo not given), the T/C runs as follows: under setting [17], 97 % of control; under setting [18], 110 % of control; (dose: 400.0 mg/kg/injection, schedule: Q01DX009 (ip), vehicle: saline with Tween-80) 92 % of control.
For `CCOc1ccc([N+](=O)[O-])cc1CN(CC)CC`, the T/C was 97 % of control (dose: 5.0 mg/kg/injection, schedule: Q01DX009 (ip), vehicle: saline); 109 % of control (dose: 9.5 mg/kg/injection, schedule: Q01DX001 (ip), vehicle: saline); 95 % of control (dose: 10.0 mg/kg/injection, schedule: Q01DX009 (ip), vehicle: saline); 97 % of control (dose: 10.0 mg/kg/injection, schedule: Q04DX003 (ip), vehicle: saline); 106 % of control (dose: 19.0 mg/kg/injection, schedule: Q01DX001 (ip), vehicle: saline); 89 % of control (dose: 20.0 mg/kg/injection, schedule: Q01DX009 (ip), vehicle: saline). The T/C runs as follows: (dose: 20.0 mg/kg/injection, schedule: Q04DX003 (ip), vehicle: saline) 102 % of control; (dose: 38.0 mg/kg/injection, schedule: Q01DX001 (ip), vehicle: saline) 98 % of control.
As for `O=[N+]([O-])c1ccc(N/N=C/c2cccnc2)cc1`, the T/C under setting [13] was 96 % of control; the T/C under setting [3] was 92 % of control; the T/C under setting [14] is 95 % of control; the T/C under setting [16] was 90 % of control; the T/C under setting [15] is 88 % of control; the T/C under setting [4] was 101 % of control.
`CCCC/C=C/C(C)O` (stereo not given): the T/C (dose: 50.0 mg/kg/injection, schedule: Q01DX009 (ip), vehicle: saline with Tween-80) was 101 % of control; the T/C under setting [17] was 105 % of control; the T/C under setting [18] was 97 % of control.
As for `CC1C(C(=O)c2ccc(-c3ccccc3)cc2)N1c1ccccc1` (stereo not given), the T/C reads like this: under setting [13], 94 % of control; under setting [15], 94 % of control.
With `COc1ccc(OC)c(CCO)c1`, the T/C reads like this: under setting [6], 93 % of control; under setting [7], 98 % of control; under setting [9], 91 % of control; under setting [11], 93 % of control.
As to `O=C(Nc1ccccc1)Nc1ccc(C(=O)c2ccccc2)cc1`, the T/C by setting is: (dose: 20.0 mg/kg/injection, schedule: Q01DX005 (ip), vehicle: saline with Tween-80) 100 % of control; (dose: 40.0 mg/kg/injection, schedule: Q01DX005 (ip), vehicle: saline with Tween-80) 89 % of control; (dose: 80.0 mg/kg/injection, schedule: Q01DX005 (ip), vehicle: saline with Tween-80) 97 % of control; (dose: 160.0 mg/kg/injection, schedule: Q01DX005 (ip), vehicle: saline with Tween-80) 90 % of control; (dose: 320.0 mg/kg/injection, schedule: Q01DX005 (ip), vehicle: saline with Tween-80) 95 % of control.
For `O=C(CC(c1ccccc1)N1CCN(c2ccccc2)CC1)c1ccc(F)cc1` (stereo not given), the T/C is, setting by setting: under setting [5], 88 % of control; under setting [1], 93 % of control; under setting [2], 93 % of control; (dose: 200.0 mg/kg/injection, schedule: Q01DX009 (ip), vehicle: gum acacia) 87 % of control; (dose: 400.0 mg/kg/injection, schedule: Q01DX009 (ip), vehicle: gum acacia) 89 % of control.
